# Experimental data taken from US20240238426A1, “PROTEIN ACYLATION MODULATION BY HETEROBIFUNCTIONAL MOLECULES” (THE SCRIPPS RESEARCH INSTITUTE, priority 2021, published 2024).
# How the values were obtained:
# [1] = test system: H3.3-FKBP12^F36V HeLa cells; assay: Quantitative acetylproteomics of H3.3-FKBP12^F36V HeLa cells; type: cell-based, Human
# Procedure: Sample preparation: Frozen cell pellets were thawed on ice and lysed in a buffer containing 50 mM Tris-HCl (pH 7.5), 150 mM NaCl, 1 mM EDTA, 1% NP-40, 0.1% sodium deoxycholate, 5 mM sodium butyrate, 10 mM nicotinamide and 1X Pierce™ protease inhibitor cocktail. Cells were sonicated to ensure complete lysis, mixed with 5 M NaCl at a ratio of 1:10 with sample volume and incubated on ice for 15 min to release chromatin-bound proteins. Cell lysates were then sonicated again to shear genomic DNA. Cellular debris was cleared by centrifugation at 16,000 g for 20 min at 4° C., protein concentration was determined using a Pierce™ BCA assay and ˜10 mg of protein was aliquoted for acetyl-proteomic analysis. Proteins were denatured with 8 M urea in 50 mM HEPES, reduced with 5 mM dithiothreitol for 30 min at 56° C., then alkylated with 5 mM iodoacetamide for 20 min in the dark at RT. Following alkylation, proteins were precipitated using chloroform-methanol as previously described, and protein pellets were dried at 56° C. for 15 min. Proteins pellets were resuspended in 1 M urea in 50 mM HEPES and digested in a two-step process with LysC and trypsin as previously described. Digested peptides were desalted using Phenomenex Strata-X polymeric reverse phase extraction cartridges using the following protocol. Cartridges were conditioned with 1 mL 100% acetonitrile, 1 mL 80% acetonitrile/0.5% AA, and 1 mL 0.1% TFA. Peptides were then loaded on to the cartridge at a reduced flow rate and desalted with 5 mL 0.1% TFA followed by 1 mL 0.5% AA. Desalted peptides were eluted using 1 mL 40% acetonitrile/0.5% AA followed by 1 mL 80% acetonitrile/0.5% AA and lyophilized. Digested peptides were quantified using the Pierce™ Quantitative Colorimetric Peptide Assay and […] was aliquoted from each for total protein analysis while the remaining peptide was lyophilized and retained for acetyl-peptide enrichment.
# Acetyl-peptide Enrichment: Acetyl-peptides were enriched using the PTMScan® Acetyl-Lysine Motif [Ac-K] Kit according to manufacturer instructions. […]
# p21 = assay: qPCR analysis of p21 mRNA level in FKBP12^F36V-p53 H1299 cells; type: cell-based, Human; settings: indicated doses, 8 hr, FIG. 7C
# TP53 target genes = assay: RNA-seq analysis of FKBP12^F36V-p53 H1299 cells; type: cell-based, Human
# p21 promoter = assay: ChIP-qPCR of FKBP12^F36V-p53 binding to p21 promoter; type: cell-based, Human; settings: AceTAG-1 treatment vs DMSO, FIG. 7G
# From the text: The p53/p21 ^CIP/WAF1 pathway is one of the most well-studied pathways related to p53 acetylation ^[8a, 14]. It has been reported that acetylation of p53 at lysine 373 and 382 play an important in activating transcription and translation of the p21^CIP/WAF1 gene^[15], which inhibits cell cycle progression during G1 and G2 phases ^[16]. However, it is still unknown whether these are the only two sites necessary for activation of downstream pathway. Moreover, the molecular mechanism as to how AceTAG-1 mediates p21 induction is currently uncertain as there are multiple hypotheses of how p53 acetylation affects transcriptional activity. […] We first tested whether AceTAG-mediated p53 acetylation increases its DNA binding to p21 promoter by ChIP-qPCR. The cells were incubated with AceTAG-1 and FKBP12^F36V-HA-p53 was immunoprecipitated, where DNA binding to the protein was purified for qPCR analysis. Among five p21 DNA sequences, binding of FKBP12^F36V-p53 to four previously reported p53 binding sites on p21 promoter (Mujtaba et al., Molecular Cell 13, 251-263, 2004) were increased with AceTAG-1 treatment.
# p300 = target: T1, p300 (Homo sapiens, UniProt Q09472); assay: In-situ photocrosslinking with p300-p probe and competition by AceTAG-1 in HEK293T cells; type: cell-based; settings: increasing concentrations of AceTAG-1, 30 min, FIG. 3F
# T1 construct: expressed in transfected cells; host or cells: HEK293T (transient)
# T1 sequence (Q09472 whole entry, species assumed): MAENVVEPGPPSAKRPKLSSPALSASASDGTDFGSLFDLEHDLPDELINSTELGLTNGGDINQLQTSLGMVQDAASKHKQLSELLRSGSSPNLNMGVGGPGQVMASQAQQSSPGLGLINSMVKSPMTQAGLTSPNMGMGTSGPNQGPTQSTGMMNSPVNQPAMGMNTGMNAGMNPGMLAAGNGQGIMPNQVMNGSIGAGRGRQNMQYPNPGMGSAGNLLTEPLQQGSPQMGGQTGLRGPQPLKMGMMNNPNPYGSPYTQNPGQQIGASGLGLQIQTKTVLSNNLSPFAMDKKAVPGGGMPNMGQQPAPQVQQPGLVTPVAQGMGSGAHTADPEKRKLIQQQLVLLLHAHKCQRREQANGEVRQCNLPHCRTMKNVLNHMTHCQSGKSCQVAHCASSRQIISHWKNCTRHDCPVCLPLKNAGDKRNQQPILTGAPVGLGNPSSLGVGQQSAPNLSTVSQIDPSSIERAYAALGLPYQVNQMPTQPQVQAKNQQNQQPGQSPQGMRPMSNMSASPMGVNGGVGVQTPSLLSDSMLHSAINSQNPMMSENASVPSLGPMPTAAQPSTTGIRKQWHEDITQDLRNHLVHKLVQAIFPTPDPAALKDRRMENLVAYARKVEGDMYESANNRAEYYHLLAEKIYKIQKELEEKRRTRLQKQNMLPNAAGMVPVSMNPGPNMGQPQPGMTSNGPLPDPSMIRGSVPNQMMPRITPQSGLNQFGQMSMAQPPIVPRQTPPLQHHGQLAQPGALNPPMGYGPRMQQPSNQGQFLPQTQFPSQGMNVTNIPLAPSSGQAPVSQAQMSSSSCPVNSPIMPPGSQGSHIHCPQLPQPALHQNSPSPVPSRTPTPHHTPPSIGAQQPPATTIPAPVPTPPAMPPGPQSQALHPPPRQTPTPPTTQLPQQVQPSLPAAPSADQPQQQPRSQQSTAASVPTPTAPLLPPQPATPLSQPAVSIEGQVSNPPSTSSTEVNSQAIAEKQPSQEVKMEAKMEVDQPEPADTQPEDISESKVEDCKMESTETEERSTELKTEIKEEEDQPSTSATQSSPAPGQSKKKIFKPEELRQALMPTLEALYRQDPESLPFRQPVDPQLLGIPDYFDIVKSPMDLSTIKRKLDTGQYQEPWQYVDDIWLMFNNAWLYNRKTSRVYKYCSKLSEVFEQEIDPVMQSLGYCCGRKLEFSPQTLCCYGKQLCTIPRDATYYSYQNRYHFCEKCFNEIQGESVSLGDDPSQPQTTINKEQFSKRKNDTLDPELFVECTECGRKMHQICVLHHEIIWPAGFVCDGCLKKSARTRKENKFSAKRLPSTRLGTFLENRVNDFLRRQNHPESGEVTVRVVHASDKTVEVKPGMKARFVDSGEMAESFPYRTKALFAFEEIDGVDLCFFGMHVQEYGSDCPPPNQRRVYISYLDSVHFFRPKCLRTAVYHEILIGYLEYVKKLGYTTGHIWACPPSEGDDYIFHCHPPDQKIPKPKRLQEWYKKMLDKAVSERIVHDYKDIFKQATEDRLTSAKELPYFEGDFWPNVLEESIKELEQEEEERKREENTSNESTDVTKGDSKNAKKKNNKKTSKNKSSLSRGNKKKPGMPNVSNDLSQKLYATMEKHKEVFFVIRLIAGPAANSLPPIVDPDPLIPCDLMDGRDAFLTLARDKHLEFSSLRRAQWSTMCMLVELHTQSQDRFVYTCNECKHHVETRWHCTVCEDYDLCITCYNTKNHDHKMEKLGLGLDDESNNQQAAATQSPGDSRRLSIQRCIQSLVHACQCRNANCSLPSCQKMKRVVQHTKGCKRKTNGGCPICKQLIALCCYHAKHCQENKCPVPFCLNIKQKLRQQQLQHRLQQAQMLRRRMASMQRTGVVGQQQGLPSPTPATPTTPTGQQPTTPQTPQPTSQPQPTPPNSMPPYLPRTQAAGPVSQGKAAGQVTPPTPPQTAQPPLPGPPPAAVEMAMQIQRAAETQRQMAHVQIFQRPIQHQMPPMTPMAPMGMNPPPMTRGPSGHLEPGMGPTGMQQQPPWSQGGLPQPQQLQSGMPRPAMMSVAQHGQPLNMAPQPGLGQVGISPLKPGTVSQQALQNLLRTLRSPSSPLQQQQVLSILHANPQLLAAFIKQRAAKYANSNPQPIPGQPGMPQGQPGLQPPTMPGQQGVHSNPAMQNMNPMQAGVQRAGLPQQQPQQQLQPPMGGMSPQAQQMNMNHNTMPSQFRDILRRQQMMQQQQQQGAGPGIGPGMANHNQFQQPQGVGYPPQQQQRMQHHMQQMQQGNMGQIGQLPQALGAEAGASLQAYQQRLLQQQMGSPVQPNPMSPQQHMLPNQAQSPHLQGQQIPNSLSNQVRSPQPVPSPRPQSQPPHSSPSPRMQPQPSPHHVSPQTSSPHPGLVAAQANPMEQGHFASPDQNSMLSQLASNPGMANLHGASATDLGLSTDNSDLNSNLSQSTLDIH
# Procedure: In-situ photocrosslinking with p300-BRD photocrosslinking probe and competition by AceTAG-1: At 50%-70% confluency, HEK293t cells in 6-well plates were transfected with pSG5-HA-p300. After 24 h, cells were co-treated for 30 min with […] p300-p probe and increasing concentration of AceTAG-1 in serum-free media. Cells then underwent UV-photocrosslinking (365 nm) for 20 min at 4° C. and harvested in cold DPBS by scraping and centrifugation. Cell pellets were washed with cold DPBS two times and aspirated. Cells were then lysed in 200 μL DPBS buffer supplemented with 1X Halt protease inhibitor cocktail. Lysate was fractionated by ultracentrifuge (100000 g, 45 min, 4° C.) to provide soluble fraction (supernatant) and membrane fraction (pellets). Soluble fraction was normalized to 2 mg/mL, underwent click reaction with Rhodamine-azide as previously described. Proteins (25 μg total protein loaded per gel lane) were resolved using SDS-PAGE (6% acrylamide). In-gel fluorescence visualization and immunoblot analysis was carried out as previously described.
# [2] = 3 μM AceTAG-1 compared to vehicle, FIG. 7F
compound,measurement,setting,value
"CC[C@H](C(=O)N1CCCC[C@H]1C(=O)O[C@H](CCc1ccc(OC)c(OC)c1)c1cccc(OCC(=O)NCCOCCOCCC(=O)NCCOc2ccc(CCc3nc4cc(-c5c(C)noc5C)ccc4n3CCN3CCOCC3)cc2)c1)c1cc(OC)c(OC)c(OC)c1 [AceTAG-1, (R)-3-(3,4-dimethoxyphenyl)-1-(3-((15-(4-(2-(5-(3,5-dimethylisoxazol-4-yl)-1-(2-morpholinoethyl)-1H-benzo[d]imidazol-2-yl)ethyl)phenoxy)-2,12-dioxo-6,9-dioxa-3,13-diazapentadecyl)oxy)phenyl)propyl (S)-1-((S)-2-(3,4,5-trimethoxyphenyl)butanoyl)piperidine-2-carboxylate]",changes in acetylation of detected proteins relative to DMSO,"[1]; 600 nM AceTAG, FIG. 5D",no substantial changes in acetylation of any detected protein
same,"endogenous histone lysine acetylation, including H3.3","[1]; AceTAG treatment, FIG. 9C",no substantial changes
same,"transcription of p21 (mRNA, qPCR)",p21,confirmed
same,"increases in apoptotic (Bax, Puma), metabolic (GLS2) or autoregulatory (Mdm2) targets","TP53 target genes; 3 μM AceTAG-1, RNA-seq",little to no increases
same,upregulation of CDKNIA transcript,TP53 target genes; [2],~2.8 fold
same,upregulation of GDF15 transcript,TP53 target genes; [2],~3 fold
same,upregulation of SLC7A11 transcript,TP53 target genes; [2],~1.7 fold
same,upregulation of TP5313 transcript,TP53 target genes; [2],~1.6 fold
same,binding at the non p53 binding sites within the C-terminus of p21 gene,p21 promoter,no significant increase
same,binding of FKBP12^F36V-p53 to four p53 binding sites on p21 promoter,p21 promoter,increased
same,competition of p300-p probe binding to p300,p300,efficiently competed
